How the values were obtained:
Format in all cases: physicochemical
[1] = Fatigue life of fulgide/fulgimide and chromene compound in polymerized methacrylate plate (Example 15); conditions: 0.05 part
Protocol: (§1) […] The mixed solution was injected into a mold which was made of a glass plate and a gasket formed of an ethylene-vinyl acetate copolymer, and was heated to a temperature of 35° to 90° C. in an air oven over a period of 20 hours for polymerization. After the polymerization was over, the polymer was withdrawn from the glass plate of the mold.
(§2) The resulting polymerized plate was irradiated with sunlight for 10 minutes. On this occasion, a color tone of said plate was visually observed. In this polymerized plate, the fulgide or fulgimide compound and the chromene compound were measured for fatigue life in the same manner as in Example 9. Further, a color tone of the polymerized plate was visually observed in T1/2 (hrs.) of the fulgide or fulgimide compound.

[2] = Visual color tone of polymerized plate under sunlight (Example 15); conditions: 0.05 part
Protocol: as §1, §2

[3] = Durability of poly(allyl diglycol carbonate) lens impregnated with the compound in silicone oil, as in Example 9 (Example 10); design: Initial color density: unit not given here; conditions: silicone oil impregnation; for Initial color density: 1.0×10^-4 mole/g; for T1/2: xenon fadeometer
Protocol: (§3) T1/2 is defined as the time required for the color density to decrease to half of its initial value when the film is exposed to the fadeometer.
The solution was impregnated in the surface of a lens composed of poly(allyl diglycol carbonate) at 200° C. for 1 hour. The concentration of the solution was adjusted to 1.0×10^-4 mole/g.

[4] = Photochromic PMMA cast film: initial coloration density, maximum absorption wavelength and fatigue life in xenon fadeometer (Example 9); conditions: PMMA cast film 0.1 mm; for λmax / Initial color density: xenon light; for T1/2: time for color density to fall to half of initial value, xenon fadeometer; for T1/2 / Initial color density: no stabilizer;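 as to Initial color density: initial color density is an absorbance value so the % unit is wrong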
Text: The thickness of the cast film was adjusted to 0.1 mm.
as §3

[5] = Fatigue life of photochromic PMMA cast film with ultraviolet stabilizer, xenon fadeometer (Examples 11-14)
Protocol: One hundred parts by weight of benzene, 10 parts by weight of poly(methyl methacrylate), 0.2 part […] The solution was cast on a slide glass (11.2×3.7 cm) to form a cast film having a thickness of 0.1 mm.
The fatigue life of photochromic film was measured as in Example 9 by a xenon long-life fadeometer (FAL-25AX-HC made by Suga Testing Instrument Co., Ltd.).
Example 11 was repeated except that the fulgimide compound obtained in Example 2 was used instead of fulgimide compound used in Example 11.
Example 11 was repeated except that the fulgimide or fulgide compounds shown in Table 28 were used instead of the fulgimide compounds in Example 11, and Cyasorb UV1084 was used as the ultraviolet stabilizer.

[6] = PMMA film, UV stabilizer Cyasorb UV1084, 0.2 part
[7] = PMMA film, UV stabilizer Chimassorb 944, 0.2 part
[8] = PMMA film, UV stabilizer Cyasorb 3346, 0.2 part
[9] = PMMA film, UV stabilizer Irgastab 2002, 0.2 part
[10] = PMMA film, UV stabilizer Rylex NBC, 0.2 part
[11] = PMMA film, UV stabilizer Spinuvex A-36, 0.2 part
[12] = PMMA film, UV stabilizer Tinuvin 144, 0.2 part
[13] = PMMA film, UV stabilizer Tinuvin 622, 0.2 part
[14] = PMMA film, UV stabilizer Tinuvin 765, 0.2 part
[15] = PMMA film, UV stabilizer UV Chek AM101, 0.2 part
[16] = PMMA film, UV stabilizer UV Chek AM105, 0.2 part

Row | λmax [3] | Initial color density [3] | T1/2 [3] | λmax [4] | T1/2 [4] | T1/2 [5, 6] | Initial color density [4] | Structure (SMILES) | also measured
1 |  |  |  | 564 nm | 58 h | 235 h | 1.15% | O=C1OC(=O)C2C1=C(C1CC1)c1c(sc3ccccc13)C21C2CCC1CC2 (stereo not drawn) [(49)] | 
2 |  |  |  | 576 nm | 62 h |  | 0.75% | CCn1c2c(c3ccccc31)C(C1CC1C(=O)O)=C1C(=O)N(CC(=O)OCCC#N)C(=O)C1C21C2CC3CC(O)(C2)CC1(O)C3 (stereo not drawn) [(44)] | T1/2 of fulgide or fulgimide compound ([1]; with chromene 3 (0.08 part)): 154 h; Color tone in T0 ([2]; with chromene 3 (0.08 part)): gray; Color tone in T1/2 ([2]; with chromene 3 (0.08 part)): gray
3 | 573 nm | 0.99 | 54 h | 568 nm | 52 h |  | 1.09% | O=C1OC(=O)C2C1=C(C1CC1)c1c(sc3c1CCCC3)C21C2CCCC1CCC2 (stereo not drawn) [(54)] | T1/2 of fulgide or fulgimide compound ([1]; with chromene 2 (0.03 part)): 134 h; Color tone in T0 ([2]; with chromene 2 (0.03 part)): gray; Color tone in T1/2 ([2]; with chromene 2 (0.03 part)): brown
4 |  |  |  | 518 nm | 48 h | 200 h | 0.90% | O=C1OC(=O)C2C1=C(C1CC1C(F)(F)F)c1sc(Br)cc1C21C2CCC1CC2 (stereo not drawn) [(50)] | 
5 |  |  |  | 559 nm | 55 h | 220 h | 1.21% | CCn1c2c(c3ccccc31)C(C1CC1)=C1C(=O)OC(=O)C1C21C2CC3CC1CC(C)(C3)C2 (stereo not drawn) [(57)] | 
6 |  |  |  | 524 nm | 57 h | 228 h | 1.21% | O=C1OC(=O)C2C1=C(C1CC1)c1cc([N+](=O)[O-])sc1C21C2CC3CC(C2)CC1C3 (stereo not drawn) [(59)] | 

The next lines start with the compound.

Row | Structure (SMILES) | λmax [3] | Initial color density [3] | T1/2 [3] | λmax [4] | T1/2 [4] | T1/2 [5, 6] | Initial color density [4] | also measured
7 | CCOC1CC1C1=C2C(=O)N(C(C#N)CC)C(=O)C2C2(c3sc(OC)c(C)c31)C1CC3CC(C1)CC2C3 (stereo not drawn) [(36)] | 582 nm | 0.77 | 95 h | 576 nm | 88 h |  |  | T1/2 of fulgide or fulgimide compound ([1]; with chromene 2 (0.03 part)): 206 h; Color tone in T0 ([2]; with chromene 2 (0.03 part)): gray; Color tone in T1/2 ([2]; with chromene 2 (0.03 part)): gray
8 | N#CCN1C(=O)C2=C(C3CC3)c3ccsc3C3(C4CCC3CC4)C2C1=O (stereo not drawn) [(2), N-cyanomethyl-4-cyclopropyl-6,7-dihydridospirobenzo[5,6-b]thiophenedicarboxyimido-7,7'-bicyclo[2.2.1]heptane] | 568 nm | 0.71 | 91 h | 563 nm | 89 h | 350 h | 0.78% | T1/2 [5, 7]: 325 h; T1/2 [5, 8]: 385 h; T1/2 ([5]; PMMA film, UV stabilizer Cyasorb UV1084, 0.2 part, listed as Example 2): 355 h; T1/2 [5, 9]: 340 h; T1/2 [5, 10]: 369 h; T1/2 [5, 11]: 346 h; T1/2 [5, 12]: 355 h; T1/2 [5, 13]: 375 h; T1/2 [5, 14]: 373 h; T1/2 [5, 15]: 336 h; T1/2 [5, 16]: 308 h
9 | CCCC1CC1C1=C2C(=O)N(C(C)C(C)=O)C(=O)C2C2(c3oc(OC)cc31)C1CCCC2CCC1 (stereo not drawn) [(30)] | 571 nm | 0.68 | 85 h | 569 nm | 78 h |  | 0.73% | T1/2 of fulgide or fulgimide compound ([1]; with chromene 1 (0.03 part)): 186 h; Color tone in T0 ([2]; with chromene 1 (0.03 part)): gray; Color tone in T1/2 ([2]; with chromene 1 (0.03 part)): gray
10 | Cc1cc2c(n1C)C1(C3CC4CC(F)(C3)CC1(F)C4)C1C(=O)N(C3CCC([N+](=O)[O-])CC3)C(=O)C1=C2C1CC1 (stereo not drawn) [(40)] | 535 nm | 0.70 | 74 h | 532 nm | 71 h | 280 h | 0.77% | 
11 | COC(=O)C(C)N1C(=O)C2=C(C3CC3(C)C)c3ccoc3C3(C4CCC3(Cl)CC4)C2C1=O (stereo not drawn) [(12)] |  |  |  | 581 nm | 77 h | 320 h | 0.78% | T1/2 of fulgide or fulgimide compound ([1]; with chromene 4 (0.08 part)): 184 h; Color tone in T0 ([2]; with chromene 4 (0.08 part)): gray; Color tone in T1/2 ([2]; with chromene 4 (0.08 part)): gray
12 | CCC(C(=O)OCCc1ccc2ccccc2c1)N1C(=O)C2=C(C3CC3)c3ccsc3C3(C4CC5CC(C4)CC3C5)C2C1=O (stereo not drawn) [(5)] |  |  |  | 532 nm | 61 h | 244 h | 0.69% | 
13 | O=C(CN1C(=O)C2=C(C3CC3)c3c(sc4c3CCCC4)C3(C4CC5CC(C4)CC3C5)C2C1=O)NCCCl (stereo not drawn) [(46)] |  |  |  |  | 59 h |  | 0.71% | T1/2 of fulgide or fulgimide compound ([1]; with chromene 5 (0.07 part)): 148 h; Color tone in T0 ([2]; with chromene 5 (0.07 part)): amber; Color tone in T1/2 ([2]; with chromene 5 (0.07 part)): amber
14 | COC(=O)CN1C(=O)C2=C(C3CC3)c3ccsc3C3(C4CCC3CC4)C2C1=O (stereo not drawn) [(1), 4-cyclopropyl-6,7-dihydrdo-N-methoxycarbonylmethylspirobenzo[5,6-b]thiophenedicarboxyimido-7,7'-bicyclo[2.2.1]heptane] | 554 nm | 0.78 | 82 h | 549 nm | 77 h | 310 h | 0.85% | T1/2 ([5]; Cyasorb UV1084, amount added 0.002, 1 part per 100 parts fulgimide): 220 h; T1/2 ([5]; Cyasorb UV1084, amount added 0.1, 50 parts per 100 parts fulgimide): 293 h; T1/2 ([5]; Cyasorb UV1084, amount added 0.8, 400 parts per 100 parts fulgimide): 330 h; T1/2 ([5]; Cyasorb UV1084, amount added 20, 10000 parts per 100 parts fulgimide): 367 h; T1/2 [5, 7]: 283 h; T1/2 [5, 8]: 336 h; T1/2 [5, 9]: 299 h; T1/2 [5, 10]: 323 h; T1/2 [5, 11]: 302 h; T1/2 [5, 12]: 310 h; T1/2 [5, 13]: 327 h; T1/2 [5, 14]: 325 h; T1/2 [5, 15]: 295 h; T1/2 [5, 16]: 272 h; T1/2 ([5]; Tinuvin 765, amount added 0.002, 1 part per 100 parts fulgimide): 213 h; T1/2 ([5]; Tinuvin 765, amount added 0.1, 50 parts per 100 parts fulgimide): 307 h; T1/2 ([5]; Tinuvin 765, amount added 0.8, 400 parts per 100 parts fulgimide): 340 h; T1/2 ([5]; Tinuvin 765, amount added 20, 10000 parts per 100 parts fulgimide): 375 h
15 | CCOC(=O)OCN1C(=O)C2=C(C3CC3c3ccccc3)c3cc(OCC)sc3C3(C4CC5CC(C)(C4)CC3(C)C5)C2C1=O (stereo not drawn) [(41)] |  |  |  | 557 nm | 65 h | 263 h | 0.82% | 
16 | CNC(=O)CCC(=O)CCN1C(=O)C2=C(C3CC3SC)c3ccn(C)c3C3(C4CCC3(C)CC4)C2C1=O (stereo not drawn) [(15)] |  |  |  | 613 nm | 65 h |  | 0.69% | T1/2 of fulgide or fulgimide compound ([1]; with chromene 5 (0.04 part)): 160 h; Color tone in T0 ([2]; with chromene 5 (0.04 part)): green; Color tone in T1/2 ([2]; with chromene 5 (0.04 part)): light gray
17 | NC1CC1C1=C2C(=O)N(COC(=O)Cc3cccc4ccccc34)C(=O)C2C2(c3c1ccn3-c1ccccc1)C1(O)CCC2(O)CC1 (stereo not drawn) [(21)] |  |  |  | 613 nm | 71 h |  | 0.78% | T1/2 of fulgide or fulgimide compound ([1]; with chromene 2 (0.03 part)): 172 h; Color tone in T0 ([2]; with chromene 2 (0.03 part)): green; Color tone in T1/2 ([2]; with chromene 2 (0.03 part)): green
18 | O=C(CCCCN1C(=O)C2=C(C3CC3)c3ccsc3C3(C4CC5CC(C4)CC3C5)C2C1=O)OCCc1ccc2ccccc2c1 (stereo not drawn) [(6)] |  |  |  | 549 nm | 57 h | 210 h | 0.72% | 
19 | CC(=O)CN1C(=O)C2=C(C3CC3C)c3cc(-c4ccccc4)sc3C3(C4CCC3CC4)C2C1=O (stereo not drawn) [(10)] | 615 nm | 0.82 | 85 h | 610 nm | 80 h |  | 0.83% | T1/2 of fulgide or fulgimide compound ([1]; with chromene 3 (0.08 part)): 190 h; Color tone in T0 ([2]; with chromene 3 (0.08 part)): green; Color tone in T1/2 ([2]; with chromene 3 (0.08 part)): bluish gray
20 | O=C1OC(=O)C2C1=C(C1CC1)c1cc(Br)sc1C21C2CC3CC(C2)CC1C3 (stereo not drawn) [(7), 2-bromo-4-cyclopropyl-6,7-dihydridospirobenzo[5,6-b]thiophenedicarboxyanhydride-7,2'-tricyclo[3.1.1^3.7]decane] |  |  |  | 529 nm | 54 h | 220 h | 1.21% | 
